# According to patent US12264159B2, “Functionalized heterocycles as antiviral agents” (Enanta Pharmaceuticals, Inc., priority 2018, dated 2025):
# System: HBV in 2.2.15 cells
# Assay: 2.2.15 cells: viral product in cell lysates quantified via quantitative real time PCR
# Assay type: cell-based, hepatitis B virus (HBV)
# Conditions: Hepatitis B virus, 120 h, day 5 post treatment, 50% reduction of viral product vs no drug controls, readout (qPCR, HBsAg or HBeAg) not specified for the column
# Experimental: 2.2.15 cells are passaged upon attaining confluency in DMEM/F12 media in the presence of 10% FBS, Penn/Strep, and 250 ug/mL G418. Novel compounds are 5 fold serially diluted in DMSO and added to 96 well plates containing 35,000 cells/well at a 1:200 dilution so that the final concentration of DMSO is 0.5%. On day 5, post treatment cell lysates and supernatants are harvested for analysis.
# Cells are lysed using Agilent Sidestep Lysis buffer, diluted 1:100 and quantified via quantitative real time PCR. Commercially available ELISA kits are used to quantitate the viral proteins HBsAg (Alpco) or HBeAg (US Biological) by following the manufacturer's recommended protocol after diluting samples to match the linear range of their respective assays. Irrespective of readout, compound concentrations that reduce viral product accumulation in the cell lysates or supernatants by 50% relative to no drug controls (EC50) are reported; EC50 ranges are as follows: A<0.1 μM; B 0.2-1 μM; C>1 μM.
row,Structure (SMILES),EC50 [nM]
1,"CC(C)[C@@H]1Cn2nc(-c3cccnc3)c(-c3cccnc3)c2-c2cc(=O)c(C(=O)O)cn21 [Example 177, (R)-6-isopropyl-10-oxo-1,2-di(pyridin-3-yl)-5,6-dihydro-10H-pyrazolo[1,5-a]pyrido[2,1-c]pyrazine-9-carboxylic acid]",200 to 1000
2,"CC(C)[C@@H]1Cn2nc(C3CC3)c(-c3cncc(F)c3)c2-c2cc(=O)c(C(=O)O)cn21 [Example 135, (R)-2-cyclopropyl-1-(5-fluoropyridin-3-yl)-6-isopropyl-10-oxo-5,6-dihydro-10H-pyrazolo[1,5-a]pyrido[2,1-c]pyrazine-9-carboxylic acid]",< 100
3,"O=C(O)c1cn2c(cc1=O)-c1c(-c3ccc(F)cc3)c(-c3ccc(F)cc3)nn1CC2 [Example 200, 1,2-bis(4-fluorophenyl)-10-oxo-5,6-dihydro-10H-pyrazolo[1,5-a]pyrido[2,1-c]pyrazine-9-carboxylic acid]",< 100
4,"CC(C)[C@@H]1Cn2nc(C3CC3)c(-c3cnsc3)c2-c2cc(=O)c(C(=O)O)cn21 [Example 138, (R)-2-cyclopropyl-6-isopropyl-1-(isothiazol-4-yl)-10-oxo-5,6-dihydro-10H-pyrazolo[1,5-a]pyrido[2,1-c]pyrazine-9-carboxylic acid]",< 100
5,"CC(C)(C)[C@@H]1Cn2nc(-c3ccc(F)cc3)c(-c3ccoc3)c2-c2cc(=O)c(C(=O)O)cn21 [Example 167, (R)-6-(tert-butyl)-2-(4-fluorophenyl)-1-(furan-3-yl)-10-oxo-5,6-dihydro-10H-pyrazolo[1,5-a]pyrido[2,1-c]pyrazine-9-carboxylic acid]",< 100
6,"O=C(O)c1cn2c(cc1=O)-c1c(-c3ccccc3F)c(-c3ccccc3F)nn1CC2 [Example 202, 1,2-bis(2-fluorophenyl)-10-oxo-5,6-dihydro-10H-pyrazolo[1,5-a]pyrido[2,1-c]pyrazine-9-carboxylic acid]",< 100
7,"CC(C)[C@@H]1Cn2nc(-c3cncc(F)c3)c(-c3cncc(F)c3)c2-c2cc(=O)c(C(=O)O)cn21 [Example 174, (R)-1,2-bis(5-fluoropyridin-3-yl)-6-isopropyl-10-oxo-5,6-dihydro-10H-pyrazolo[1,5-a]pyrido[2,1-c]pyrazine-9-carboxylic acid]",200 to 1000
8,"CC(C)(C)[C@@H]1Cn2ncc(-c3ccc(OC(F)(F)F)cc3)c2-c2cc(=O)c(C(=O)O)cn21 [Example 117, (R)-6-(tert-butyl)-10-oxo-1-(4-(trifluoromethoxy)phenyl)-5,6-dihydro-10H-pyrazolo[1,5-a]pyrido[2,1-c]pyrazine-9-carboxylic acid]",> 1000
9,"Cc1ncc(-c2cnn3c2-c2cc(=O)c(C(=O)O)cn2[C@H](C(C)(C)C)C3)s1 [Example 105, (R)-6-(tert-butyl)-1-(2-methylthiazol-5-yl)-10-oxo-5,6-dihydro-10H-pyrazolo[1,5-a]pyrido[2,1-c]pyrazine-9-carboxylic acid]",200 to 1000
10,"CC(C)(C)[C@@H]1Cn2ncc(-c3cncs3)c2-c2cc(=O)c(C(=O)O)cn21 [Example 106, (R)-6-(tert-butyl)-10-oxo-1-(thiazol-5-yl)-5,6-dihydro-10H-pyrazolo[1,5-a]pyrido[2,1-c]pyrazine-9-carboxylic acid]",< 100
11,"CC(C)(C)[C@@H]1Cn2nc(C3CC3)c(-c3ccnnc3)c2-c2cc(=O)c(C(=O)O)cn21 [Example 161, (R)-6-(tert-butyl)-2-cyclopropyl-10-oxo-1-(pyridazin-4-yl)-5,6-dihydro-10H-pyrazolo[1,5-a]pyrido[2,1-c]pyrazine-9-carboxylic acid]",200 to 1000
12,"CC(C)(C)[C@@H]1Cn2nc(-c3cc(F)ccc3OCC(F)(F)F)c(Cl)c2-c2cc(=O)c(C(=O)O)cn21 [Example 89, (R)-6-(tert-butyl)-1-chloro-2-(5-fluoro-2-(2,2,2-trifluoroethoxy)phenyl)-10-oxo-5,6-dihydro-10H-pyrazolo[1,5-a]pyrido[2,1-c]pyrazine-9-carboxylic acid]",< 100
13,"CC(C)[C@@H]1Cn2nc(C3CC3)c(-c3ccccc3O)c2-c2cc(=O)c(C(=O)O)cn21 [Example 141, (R)-2-cyclopropyl-1-(2-hydroxyphenyl)-6-isopropyl-10-oxo-5,6-dihydro-10H-pyrazolo[1,5-a]pyrido[2,1-c]pyrazine-9-carboxylic acid]",< 100
14,"CC(C)(C)[C@@H]1Cn2ncc(-c3ccccc3C(F)(F)F)c2-c2cc(=O)c(C(=O)O)cn21 [Example 121, (R)-6-(tert-butyl)-10-oxo-1-(2-(trifluoromethyl)phenyl)-5,6-dihydro-10H-pyrazolo[1,5-a]pyrido[2,1-c]pyrazine-9-carboxylic acid]",> 1000
15,"CC(C)(C)[C@@H]1Cn2nc(-c3ccc(F)cc3)c(Cl)c2-c2cc(=O)c(C(=O)O)cn21 [Example 87, (R)-6-(tert-butyl)-1-chloro-2-(4-fluorophenyl)-10-oxo-5,6-dihydro-10H-pyrazolo[1,5-a]pyrido[2,1-c]pyrazine-9-carboxylic acid]",< 100
16,"CC(C)[C@@H]1Cn2nc(-c3ccnnc3)c(-c3ccnnc3)c2-c2c(F)c(=O)c(C(=O)O)cn21 [Example 183, (R)-11-fluoro-6-isopropyl-10-oxo-1,2-di(pyridazin-4-yl)-5,6-dihydro-10H-pyrazolo[1,5-a]pyrido[2,1-c]pyrazine-9-carboxylic acid]",200 to 1000
17,"CC(C)(C)[C@@H]1Cn2ncc(Cl)c2-c2cc(=O)c(C(=O)O)cn21 [Example 99, (R)-6-(tert-butyl)-1-chloro-10-oxo-5,6-dihydro-10H-pyrazolo[1,5-a]pyrido[2,1-c]pyrazine-9-carboxylic acid]",200 to 1000
18,"CC(C)[C@@H]1Cn2nc(-c3cccc(O)c3)c(-c3cccc(O)c3)c2-c2cc(=O)c(C(=O)O)cn21 [Example 178, (R)-1,2-bis(3-hydroxyphenyl)-6-isopropyl-10-oxo-5,6-dihydro-10H-pyrazolo[1,5-a]pyrido[2,1-c]pyrazine-9-carboxylic acid]",< 100
19,"CCOc1ccccc1-c1cnn2c1-c1cc(=O)c(C(=O)O)cn1[C@H](C(C)(C)C)C2 [Example 124, (R)-6-(tert-butyl)-1-(2-ethoxyphenyl)-10-oxo-5,6-dihydro-10H-pyrazolo[1,5-a]pyrido[2,1-c]pyrazine-9-carboxylic acid]",< 100
20,"CC(C)[C@@H]1Cn2nc(C3CC3)c(-c3cn[nH]c3)c2-c2cc(=O)c(C(=O)O)cn21 [Example 137, (R)-2-cyclopropyl-6-isopropyl-10-oxo-1-(1H-pyrazol-4-yl)-5,6-dihydro-10H-pyrazolo[1,5-a]pyrido[2,1-c]pyrazine-9-carboxylic acid]",200 to 1000
21,"CC(C)[C@@H]1Cn2nc(-c3cccnc3)c(-c3cccnc3)c2-c2c(F)c(=O)c(C(=O)O)cn21 [Example 189, (R)-11-fluoro-6-isopropyl-10-oxo-1,2-di(pyridin-3-yl)-5,6-dihydro-10H-pyrazolo[1,5-a]pyrido[2,1-c]pyrazine-9-carboxylic acid]",200 to 1000
22,"CC(C)(C)[C@@H]1Cn2ncc(-c3cncnc3)c2-c2cc(=O)c(C(=O)O)cn21 [Example 120, (R)-6-(tert-butyl)-10-oxo-1-(pyrimidin-5-yl)-5,6-dihydro-10H-pyrazolo[1,5-a]pyrido[2,1-c]pyrazine-9-carboxylic acid]",> 1000
